Several values for one entry are separate records, joined by “and”; a condition that tells them apart may be missing. Equal entries are not always repeated.
Molecular target: T1, human GPR40 (Homo sapiens, UniProt O14842)
T1 construct: expressed in transfected cells
Assay: GPR40 calcium flux assay, human GPR40
Type: cell-based
Settings: transfected HEK293 cells stably expressing human GPR40; multiple values = repeated testing; read-out: hGPR40 Ca^2+ Assay EC50
Description: Compounds were tested in a calcium flux assay using transfected HEK293 cells stably expressing either human GPR40 or rat GPR40. Human GPR40 expressing cells were cultured in DMEM-High Glucose media supplemented with 10% fetal bovine serum, 1×L-Glutamine, 1×Penicillin/Streptomycin and 500 μg/mL G418. Rat GPR40 expressing cells were cultured in DMEM-High Glucose media supplemented with 10% fetal bovine serum and 1 μg/mL puromycin. Cells were plated into poly-D-lysine coated 384-well plates and cultured overnight in a 37° C. humidified tissue culture incubator under 5% CO2/[…] atmosphere. On the day of the experiment, the culture media was replaced with assay buffer (HBSS, 20 mM HEPES, 0.1% BSA) and the cells incubated at 37° C. for 1 h. Calcium-sensitive fluorescent dye (Fluo 8 No-Wash Calcium Dye, ABD Bioquest) was then added and the cells incubated for another 30 min at 37° C. followed by 15 min at room temperature while protected from the light. The cell plate and a plate of diluted compounds of Formula (I) were loaded into a fluorescent plate reader that added compounds onto the cells while measuring the fluorescence intensity of each well. The plate reader recorded fluorescence intensity at 1 second intervals for 8 min and provided the data for analysis in an Excel format. EC50 values were calculated using Prism (GraphPad) software.

T1 sequence (O14842 whole entry): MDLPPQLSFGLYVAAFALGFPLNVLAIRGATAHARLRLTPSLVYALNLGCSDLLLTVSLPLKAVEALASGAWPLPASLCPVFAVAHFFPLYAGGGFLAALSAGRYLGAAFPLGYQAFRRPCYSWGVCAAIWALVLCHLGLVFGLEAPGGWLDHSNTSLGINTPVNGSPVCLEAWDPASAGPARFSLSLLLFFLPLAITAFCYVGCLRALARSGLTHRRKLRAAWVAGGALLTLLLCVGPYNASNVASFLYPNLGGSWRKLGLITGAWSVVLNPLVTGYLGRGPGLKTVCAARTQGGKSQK

Row | Compound | EC50
1 | COc1cc(OC)cc(-c2scc(COc3cccc([C@@H](CC(=O)O)C4CC4)c3)c2C2=CCCC2(C)C)c1 [Cpd 23, (3S)-3-cyclopropyl-3-[3-[[5-(3,5-dimethoxyphenyl)-4-(5,5-dimethylcyclopenten-1-yl)-3-thienyl]methoxy]phenyl]propanoic acid] | 16 nM and 15 nM
2 | CC1(C)CCC=C1c1c(COc2cccc([C@@H](CC(=O)O)C3CC3)c2)csc1-c1cccc2[nH]ccc12 [Cpd 24, (3S)-3-cyclopropyl-3-[3-[[4-(5,5-dimethylcyclopenten-1-yl)-5-(1H-indol-4-yl)-3-thienyl]methoxy]phenyl]propanoic acid] | 68 nM and 66 nM
3 | CC1(C)CCC=C1c1c(COc2cccc([C@@H](CC(=O)O)C3CC3)c2)csc1-c1cccc2occc12 [Cpd 25, (3S)-3-[3-[[5-(benzofuran-4-yl)-4-(5,5-dimethylcyclopenten-1-yl)-3-thienyl]methoxy]phenyl]-3-cyclopropyl-propanoic acid] | 101 nM and 68 nM
4 | COc1cccc(-c2scc(COc3cccc([C@@H](CC(=O)O)C4CC4)c3)c2C2=CCCC2(C)C)c1 [Cpd 26, (3S)-3-cyclopropyl-3-[3-[[4-(5,5-dimethylcyclopenten-1-yl)-5-(3-methoxyphenyl)-3-thienyl]methoxy]phenyl]propanoic acid] | 26 nM and 24 nM
5 | COc1cc(-c2scc(COc3cccc([C@@H](CC(=O)O)C4CC4)c3)c2C2=CCCC2(C)C)c(F)cn1 [Cpd 27, (3S)-3-cyclopropyl-3-[3-[[4-(5,5-dimethylcyclopenten-1-yl)-5-(5-fluoro-2-methoxy-4-pyridyl)-3-thienyl]methoxy]phenyl]propanoic acid] | 53 nM and 42 nM
6 | COc1cncc(-c2scc(COc3cccc([C@@H](CC(=O)O)C4CC4)c3)c2C2=CCCC2(C)C)c1 [Cpd 28, (3S)-3-cyclopropyl-3-[3-[[4-(5,5-dimethylcyclopenten-1-yl)-5-(5-methoxy-3-pyridyl)-3-thienyl]methoxy]phenyl]propanoic acid] | 83 nM and 74 nM
7 | COc1ccc(F)c(-c2sc(Cl)c(COc3cccc([C@@H](CC(=O)O)C4CC4)c3)c2C(C)C(F)(F)F)c1 (stereo partly drawn) [Cpd 29, (3S)-3-[3-[[2-chloro-5-(2-fluoro-5-methoxy-phenyl)-4-(2,2,2-trifluoro-1-methyl-ethyl)-3-thienyl]methoxy]phenyl]-3-cyclopropyl-propanoic acid] | 320 nM and 211 nM
8 | COc1ccc(F)c(-c2snc(COc3cccc([C@@H](CC(=O)O)C4CC4)c3)c2C2=CCCC2(C)C)c1 [Cpd 30, (3S)-3-cyclopropyl-3-[3-[[4-(5,5-dimethylcyclopenten-1-yl)-5-(2-fluoro-5-methoxy-phenyl)isothiazol-3-yl]methoxy]phenyl]propanoic acid] | 32 nM and 27 nM
9 | COc1cc(-c2scc(COc3cccc([C@@H](CC(=O)O)C4CC4)c3)c2C2=CCCC2(C)C)ccn1 [Cpd 31, (3S)-3-cyclopropyl-3-[3-[[4-(5,5-dimethylcyclopenten-1-yl)-5-(2-methoxy-4-pyridyl)-3-thienyl]methoxy]phenyl]propanoic acid] | 258 nM and 162 nM
10 | COc1ccc(F)c(-c2onc(COc3cccc([C@@H](CC(=O)O)C4CC4)c3)c2-c2ccc(C)s2)c1 [Cpd 32, (3S)-3-cyclopropyl-3-[3-[[5-(2-fluoro-5-methoxy-phenyl)-4-(5-methyl-2-thienyl)isoxazol-3-yl]methoxy]phenyl]propanoic acid] | 31 nM and 27 nM
11 | COc1ccc(F)c(-c2onc(COc3cccc([C@@H](CC(=O)O)C4CC4)c3)c2-c2sccc2C)c1 [Cpd 33, (3S)-3-cyclopropyl-3-[3-[[5-(2-fluoro-5-methoxy-phenyl)-4-(3-methyl-2-thienyl)isoxazol-3-yl]methoxy]phenyl]propanoic acid] | 215 nM and 178 nM
12 | COc1ccc(F)c(-c2onc(COc3cccc([C@@H](CC(=O)O)C4CC4)c3)c2-c2ccccc2)c1 [Cpd 34, (3S)-3-cyclopropyl-3-[3-[[5-(2-fluoro-5-methoxy-phenyl)-4-phenyl-isoxazol-3-yl]methoxy]phenyl]propanoic acid] | 168 nM and 140 nM
13 | COc1ccc(F)c(-c2onc(COc3cccc([C@@H](CC(=O)O)C4CC4)c3)c2CC(C)C)c1 [Cpd 35, (3S)-3-cyclopropyl-3-[3-[[5-(2-fluoro-5-methoxy-phenyl)-4-isobutyl-isoxazol-3-yl]methoxy]phenyl]propanoic acid] | 8 nM and 6 nM
14 | COc1ccc(F)c(-c2onc(COc3cccc([C@@H](CC(=O)O)C4CC4)c3)c2C=C(C)C)c1 [Cpd 36, (3S)-3-cyclopropyl-3-[3-[[5-(2-fluoro-5-methoxy-phenyl)-4-(2-methylprop-1-enyl)isoxazol-3-yl]methoxy]phenyl]propanoic acid] | 30 nM and 26 nM
15 | COc1ccc(F)c(-c2onc(COc3cccc([C@@H](CC(=O)O)C4CC4)c3)c2C2CC2)c1 [Cpd 37, (3S)-3-cyclopropyl-3-[3-[[4-cyclopropyl-5-(2-fluoro-5-methoxy-phenyl)isoxazol-3-yl]methoxy]phenyl]propanoic acid] | 65 nM and 55 nM
16 | COc1ccc(F)c(-c2onc(COc3cccc([C@@H](CC(=O)O)C4CC4)c3)c2OCC(C)C)c1 [Cpd 39, (3S)-3-cyclopropyl-3-[3-[[5-(2-fluoro-5-methoxy-phenyl)-4-isobutoxy-isoxazol-3-yl]methoxy]phenyl]propanoic acid] | 5 nM and 4 nM
17 | COc1ccc(F)c(-c2onc(COc3cccc([C@@H](CC(=O)O)C4CC4)c3)c2OC2CCCC2)c1 [Cpd 40, (3S)-3-[3-[[4-(cyclopentoxy)-5-(2-fluoro-5-methoxy-phenyl)isoxazol-3-yl]methoxy]phenyl]-3-cyclopropyl-propanoic acid] | 8 nM and 7 nM
18 | COc1ccc(F)c(-c2onc(COc3cccc([C@@H](CC(=O)O)C4CC4)c3)c2OCC2CC2)c1 [Cpd 41, (3S)-3-cyclopropyl-3-[3-[[4-(cyclopropylmethoxy)-5-(2-fluoro-5-methoxy-phenyl)isoxazol-3-yl]methoxy]phenyl]propanoic acid] | 14 nM and 12 nM
19 | COc1ccc(F)c(-c2onc(COc3cccc([C@@H](CC(=O)O)C4CC4)c3)c2OC(C)C)c1 [Cpd 42, (3S)-3-cyclopropyl-3-[3-[[5-(2-fluoro-5-methoxy-phenyl)-4-isopropoxy-isoxazol-3-yl]methoxy]phenyl]propanoic acid] | 19 nM and 15 nM
20 | COc1ccc(F)c(-c2onc(COc3cccc([C@@H](CC(=O)O)C4CC4)c3)c2OC2CCC2)c1 [Cpd 43, (3S)-3-[3-[[4-(cyclobutoxy)-5-(2-fluoro-5-methoxy-phenyl)isoxazol-3-yl]methoxy]phenyl]-3-cyclopropyl-propanoic acid] | 11 nM and 9 nM
21 | COc1ccc(F)c(-c2onc(COc3cccc([C@@H](CC(=O)O)C4CC4)c3)c2-c2ccc(C(C)(C)C)s2)c1 [Cpd 45, (3S)-3-[3-[[4-(5-tert-butyl-2-thienyl)-5-(2-fluoro-5-methoxy-phenyl)isoxazol-3-yl]methoxy]phenyl]-3-cyclopropyl-propanoic acid] | 23 nM and 21 nM
22 | COc1ccc(F)c(-c2onc(COc3cccc([C@@H](CC(=O)O)C4CC4)c3)c2OC2CCCCC2)c1 [Cpd 46, (3S)-3-[3-[[4-(cyclohexoxy)-5-(2-fluoro-5-methoxy-phenyl)isoxazol-3-yl]methoxy]phenyl]-3-cyclopropyl-propanoic acid] | 7 nM and 5 nM
23 | COc1cc(-c2onc(COc3cccc([C@@H](CC(=O)O)C4CC4)c3)c2OCC(C)C)c(F)cn1 [Cpd 47, (3S)-3-cyclopropyl-3-[3-[[5-(5-fluoro-2-methoxy-4-pyridyl)-4-isobutoxy-isoxazol-3-yl]methoxy]phenyl]propanoic acid] | 20 nM and 16 nM
24 | COc1cc(-c2onc(COc3cccc([C@@H](CC(=O)O)C4CC4)c3)c2OC2CCCCC2)c(F)cn1 [Cpd 48, (3S)-3-[3-[[4-(cyclohexoxy)-5-(5-fluoro-2-methoxy-4-pyridyl)isoxazol-3-yl]methoxy]phenyl]-3-cyclopropyl-propanoic acid] | 24 nM and 21 nM
25 | COc1ccc(F)c(-c2onc(COc3cccc([C@@H](CC(=O)O)C4CC4)c3)c2OCCC(F)(F)F)c1 [Cpd 49, (3S)-3-cyclopropyl-3-[3-[[5-(2-fluoro-5-methoxy-phenyl)-4-(3,3,3-trifluoropropoxy)isoxazol-3-yl]methoxy]phenyl]propanoic acid] | 67 nM and 56 nM
26 | CCOc1c(COc2cccc([C@@H](CC(=O)O)C3CC3)c2)noc1-c1cc(OC)ccc1F [Cpd 50, (3S)-3-cyclopropyl-3-[3-[[4-ethoxy-5-(2-fluoro-5-methoxy-phenyl)isoxazol-3-yl]methoxy]phenyl]propanoic acid] | 110 nM and 81 nM
27 | CCOc1c(COc2cccc([C@@H](CC(=O)O)C3CC3)c2)noc1-c1cc(OC)ncc1F [Cpd 51, (3S)-3-cyclopropyl-3-[3-[[4-ethoxy-5-(5-fluoro-2-methoxy-4-pyridyl)isoxazol-3-yl]methoxy]phenyl]propanoic acid] | 180 nM and 140 nM
28 | COc1cc(-c2onc(COc3cccc([C@@H](CC(=O)O)C4CC4)c3)c2C=C(C)C)c(F)cn1 [Cpd 52, (3S)-3-cyclopropyl-3-[3-[[5-(5-fluoro-2-methoxy-4-pyridyl)-4-(2-methylprop-1-enyl)isoxazol-3-yl]methoxy]phenyl]propanoic acid] | 51 nM and 45 nM

Reference: US9920040B2, “GPR40 agonists for the treatment of type II diabetes” (Janssen Pharmaceutica NV, priority 2015, dated 2018)
